Test results from US20240400518A1, “SOS1 INHIBITOR AND USE THEREOF” (KANAPH THERAPEUTICS INC., priority 2021, published 2024).

Columns and labels:
SOS1 = molecular target: T1, SOS1 (Homo sapiens, UniProt Q07889); assay: SOS-catalyzed nucleotide exchange assay (HTRF, SOS1-mediated GTP loading of KRAS G12D); type: biochemical; settings: GST-KRAS G12D, HIS-SOS1cat, IC50 class
T1 construct: adding equal amounts of HIS—SOS1cat (160 nM; Cytoskeleton, US); His (N); purchased Cytoskeleton, US
T1 sequence (Q07889 564-1049 limits assumed): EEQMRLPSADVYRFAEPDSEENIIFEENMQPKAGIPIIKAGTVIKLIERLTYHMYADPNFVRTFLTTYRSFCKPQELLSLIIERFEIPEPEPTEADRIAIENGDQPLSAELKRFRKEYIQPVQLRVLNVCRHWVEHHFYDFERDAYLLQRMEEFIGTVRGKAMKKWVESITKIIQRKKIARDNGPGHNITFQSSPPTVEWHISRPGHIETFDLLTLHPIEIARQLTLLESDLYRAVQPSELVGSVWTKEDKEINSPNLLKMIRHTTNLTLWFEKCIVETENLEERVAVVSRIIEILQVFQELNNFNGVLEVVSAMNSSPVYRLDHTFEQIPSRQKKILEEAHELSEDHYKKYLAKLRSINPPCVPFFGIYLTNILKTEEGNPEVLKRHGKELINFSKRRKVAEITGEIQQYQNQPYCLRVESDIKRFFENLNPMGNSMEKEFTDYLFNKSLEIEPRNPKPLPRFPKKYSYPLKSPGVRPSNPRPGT
Description: SOS1 activity was measured by SOS1-mediated GTP loading quantification of KRAS^G12D. GTP loaded KRAS^G12D was detected by HTRF (Homogeneous Time Resolved Fluorescence) using anti-GST terbium (Cisbio, France) as a donor and a fluorescence GTP analogue (EDA-GTP-DY-647P1, [DY-647P1 labeled 2′/3′-O-(2-aminoethyl-carbamoyl)guanosine-5′-triphosphate (Jena bioscience, Germany)]) as an acceptor.
Assay buffer was composed of 10 mM HEPES pH 7.4, 150 mM NaCl, 5 mM MgCl2, 1 mM DTT, 0.05% BSA Fraction V pH 7.0 (Sigma) and 0.0025% (v/v) Igepal (Sigma). KRAS^G12D working solution was prepared by adding equal amounts of GST-KRAS^G12D (100 nM) and anti-GST-terbium (2 nM; Cisbio, France) to the assay buffer and culturing on ice for 10 minutes. SOS1cat working solution was prepared by adding equal amounts of HIS—SOS1cat (160 nM; Cytoskeleton, US) and EDA-GTP-DY-647P1 (200 nM; Jena bioscience, Germany) to the assay buffer. Control solution was prepared by adding equal volumes of EDA-GTP-DY-647P1 and the assay buffer for normalization control to exclude GEF-independent GTP loading and background signals. In order to induce a reaction, 5 μL of the SOS1cat working solution or the control solution was injected into each well. 5 μL of a compound having various concentrations from 128 pM to 10 μM was added to wells containing the SOS1cat working solution and incubated at room temperature for 10 minutes to bind to SOS1.
10 μL of the KRAS^G12D solution was added to each well and incubated for 30 minutes at room temperature while shaking. HTRF was measured using a Thermo Varioskan (excitation 334 nm, emission 665 nm). The IC50 of each inhibitor was analyzed using Graphad Prism.

KRAS^G12C::SOS1 = molecular target: T2, KRAS^G12C::SOS1 (Homo sapiens, UniProt Q07889); assay: KRAS G12C::SOS1 protein-protein interaction (PPI) inhibition assay (HTRF binding kit); settings: max inhibitor concentration 3 μM, three replicates, IC50 class
T2 construct: purchased CISBIO, FRANCE 64KRASG12PEH
T2 sequence (Q07889 1-1333): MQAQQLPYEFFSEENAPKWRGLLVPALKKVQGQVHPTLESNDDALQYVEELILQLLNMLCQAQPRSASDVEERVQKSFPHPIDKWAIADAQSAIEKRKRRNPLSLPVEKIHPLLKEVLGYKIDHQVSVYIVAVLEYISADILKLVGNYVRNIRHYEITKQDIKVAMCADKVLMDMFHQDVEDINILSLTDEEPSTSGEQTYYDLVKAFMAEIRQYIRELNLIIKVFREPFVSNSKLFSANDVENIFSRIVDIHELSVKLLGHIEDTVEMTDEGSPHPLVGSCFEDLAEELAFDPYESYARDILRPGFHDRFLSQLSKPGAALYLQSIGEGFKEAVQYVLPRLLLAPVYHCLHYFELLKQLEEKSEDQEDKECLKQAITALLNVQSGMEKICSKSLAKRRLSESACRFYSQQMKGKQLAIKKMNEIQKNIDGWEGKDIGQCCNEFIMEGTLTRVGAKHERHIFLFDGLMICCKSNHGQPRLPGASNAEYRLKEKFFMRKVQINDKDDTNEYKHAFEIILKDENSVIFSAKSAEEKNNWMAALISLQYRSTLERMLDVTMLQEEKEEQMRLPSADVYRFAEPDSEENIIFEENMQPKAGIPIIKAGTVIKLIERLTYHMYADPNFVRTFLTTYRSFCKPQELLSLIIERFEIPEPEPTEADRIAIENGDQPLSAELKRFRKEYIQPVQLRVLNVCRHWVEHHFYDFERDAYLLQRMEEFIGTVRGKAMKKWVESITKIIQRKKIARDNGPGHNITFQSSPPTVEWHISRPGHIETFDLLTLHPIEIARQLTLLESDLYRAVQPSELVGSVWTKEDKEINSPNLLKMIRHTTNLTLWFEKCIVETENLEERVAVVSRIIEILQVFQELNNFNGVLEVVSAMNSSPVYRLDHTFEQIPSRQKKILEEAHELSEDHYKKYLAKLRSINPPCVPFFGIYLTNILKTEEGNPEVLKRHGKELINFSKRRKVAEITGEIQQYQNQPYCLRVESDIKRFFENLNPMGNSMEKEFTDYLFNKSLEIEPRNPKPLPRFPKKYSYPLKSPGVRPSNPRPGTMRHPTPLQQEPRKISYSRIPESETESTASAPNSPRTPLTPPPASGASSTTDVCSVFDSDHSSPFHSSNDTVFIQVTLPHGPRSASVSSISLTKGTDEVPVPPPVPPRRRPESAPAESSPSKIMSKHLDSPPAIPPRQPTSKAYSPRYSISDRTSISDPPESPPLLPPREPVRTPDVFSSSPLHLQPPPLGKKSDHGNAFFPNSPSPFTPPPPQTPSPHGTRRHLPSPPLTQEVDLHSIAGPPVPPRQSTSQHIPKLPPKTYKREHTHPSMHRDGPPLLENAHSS
Description: Protein-protein interaction between SOS1 and KRAS^G12C was detected using KRAS G12C/SOS1 binding kit from CISBIO (64KRASG12PEH, CISBIO, FRANCE) according to the manufacturer's assay method. Briefly, the maximum concentration of an inhibitor sample was set to be 3 μM, and the inhibitor sample was diluted 7 times by 1/3, and samples having a total of 8 concentrations were prepared. In HTRF (Homogeneous Time-Resolved Fluorescence) exclusive 96-well low-volume white plate (66PL96005, CISBIO, FRANCE), 2 μL of an inhibitor sample prepared for each concentration, 5 μL of a mixed solution of Tag1 labeled KRAS^G12C protein and GTP diluted with the dilution solution provided by the manufacturer, and 5 μL of Tag2 labeled SOS1 protein were mixed, and added with 8 μL of a diluted solution where anti-Tag1 KRAS^G12CXL665 (HTRF acceptor) labeled antibody and anti-Tag2 SOS1 Terbium cryptate (HTRF donor) labeled antibody were mixed in an equal ratio and cultured at room temperature for 2 hours.

Row | IC50 (SOS1) | IC50 (KRAS^G12C::SOS1) | SMILES
1 | 1000 to 10000 nM | – | CC(=O)N1CCC(n2nc(C(=O)N[C@H](C)c3cc(N)cc(C(F)(F)F)c3)ccc2=O)CC1 [Example 118, 1-(1-acetylpiperidin-4-yl)-N-[(1R)-1-[3-amino-5-(trifluoromethyl)phenyl]ethyl]-6-oxo-1,6-dihydropyridazine-3-carboxamide]
2 | 1000 to 10000 nM | < 1000 nM | C[C@@H](NC(=O)c1ccc(=O)n(-c2ccc(OC(F)(F)F)cc2)n1)c1cc(N)cc(C(F)(F)F)c1 [Example 154]
